Each block holds one compound with its values, some of them ahead of it.
What was measured:
[1] = system: arginine-, lysine-, and DNA-methyltransferases; assay: Methyltransferase panel profiling (BPS Bioscience): other methyltransferases; conditions: tested up to 10 µM
[2] = system: MTAP-deleted HCT116 cells; assay: SDMA high-content imaging assay, MTAP-deleted cells; type: cell-based; conditions: Homo sapiens, HCT-116, 72 h, read-out: IC50, reduction of cellular SDMA
Procedure: (§1) Cells were seeded into 96-well plates and incubated with compound for 3 d before fixing with 4% PFA (in 1× PBS) for 15 min. Cells were then washed once with Wash Buffer (1× PBS + 1% BSA + 0.2% Triton X-100), 100 µL/well for 15 min before blocking for 1 h Using Licor Odyssey blocking reagent ([…]) (100 µL/well). After three washes in Wash Buffer, cells were then stained for 2 h with anti-SDMA antibody (1:2,000 in Wash Buffer), washed three times in Wash Buffer, stained for 1 h in the dark using anti-rabbit Alexa-488 (1:2,000 in Wash Buffer) and Hoechst 33342 (1:5,000), followed by three washes in Wash Buffer before quantifying on a Cellomics Array Scan image system.

[3] = system: HCT116 MTAP WT tumors; assay: Contralateral tumor model, tumor SDMA ELISA, WT tumors; type: in vivo, mouse; conditions: parental (MTAP WT) tumors, daily for 4 d
Procedure: (§2) Mice were implanted contralaterally on their flanks with parental and MTAP-deleted HCT116 cells such that each mouse would carry one WT and one MTAP-deleted tumor (Fig. 4A). This design eliminates variance in compound exposures between groups and allows direct assessment of MTAP status impact on compound effects. […] Four hours post the fourth dose, tumors were analyzed for SDMA content by ELISA. […] This confirms the MTA-selective action of AM-9934 in the tumor setting.
(§3) HCT116 colon carcinoma WT and MTAP^−^/^− isogenic cells were determined to be free of contamination with mycoplasma as well as a panel of murine viral pathogens in addition to being authenticated. Mice were inoculated s.c. with 2 × 10^6 HCT116 WT cells on the left flank and 2 × 10^6 HCT116 MTAP^−^/^− cells on the right flank in 33% Matrigel. Mice were enrolled once both tumors reached 250 to 500 mm^3 and randomized into vehicle vs. PRMT5i treated groups (N = 3). Vehicle or PRMT5i treatment started on day 14 postimplantation orally and treated once daily for 4 d. […]
(§4) Preparation of protein lysates from snap-frozen tumors was carried out as follows: samples were collected in a Covaris Tissue Tube (520001 TT1) to be used in conjunction with the CryoPrep. […] The protein concentration of each lysate was then determined using a BCA assay. […]

[4] = target: T1, PRMT5:MEP50 complex (Homo sapiens, UniProt O14744); assay: Thermal Stability Assay (TSA), thermal shift; type: binding; conditions: for stabilization of the complex by cofactor alone: cofactor added to apo complex (10 µM SIN, 10 µM SAM, or 5 µM MTA)
T1 construct: FLAG (N); purchased Reaction Biology Corp HMT-2-148; host or cells: insect cells (baculovirus)
T1 sequence (O14744 2-637 limits assumed): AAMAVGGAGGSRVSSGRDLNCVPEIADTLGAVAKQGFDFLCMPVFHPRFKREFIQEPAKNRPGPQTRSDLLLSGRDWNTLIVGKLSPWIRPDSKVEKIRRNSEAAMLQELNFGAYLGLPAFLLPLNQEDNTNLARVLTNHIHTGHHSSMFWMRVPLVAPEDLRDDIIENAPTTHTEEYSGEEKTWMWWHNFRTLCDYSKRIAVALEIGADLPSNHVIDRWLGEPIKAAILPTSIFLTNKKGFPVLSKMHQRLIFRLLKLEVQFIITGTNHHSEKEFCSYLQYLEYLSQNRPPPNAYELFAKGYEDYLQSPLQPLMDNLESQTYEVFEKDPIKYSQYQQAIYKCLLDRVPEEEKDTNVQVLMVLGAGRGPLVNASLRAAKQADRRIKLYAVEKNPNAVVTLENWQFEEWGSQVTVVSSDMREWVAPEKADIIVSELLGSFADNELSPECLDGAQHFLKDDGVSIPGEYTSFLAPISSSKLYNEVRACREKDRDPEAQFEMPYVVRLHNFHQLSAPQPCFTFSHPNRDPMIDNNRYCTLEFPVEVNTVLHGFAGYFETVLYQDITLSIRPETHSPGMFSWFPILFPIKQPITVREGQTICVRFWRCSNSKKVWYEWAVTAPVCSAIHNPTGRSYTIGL
T1 sequence (Q9BQA1 2-342 partner limits assumed): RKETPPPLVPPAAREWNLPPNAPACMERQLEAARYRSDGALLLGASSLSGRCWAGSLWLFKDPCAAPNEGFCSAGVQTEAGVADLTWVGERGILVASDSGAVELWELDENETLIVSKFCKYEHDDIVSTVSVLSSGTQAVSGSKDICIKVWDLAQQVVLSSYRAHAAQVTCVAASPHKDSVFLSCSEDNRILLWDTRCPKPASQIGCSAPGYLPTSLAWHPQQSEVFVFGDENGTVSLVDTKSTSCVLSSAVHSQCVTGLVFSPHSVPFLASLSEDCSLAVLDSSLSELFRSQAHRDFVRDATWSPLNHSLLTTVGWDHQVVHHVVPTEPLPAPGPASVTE
Procedure: 0.1 µM PRMT5:MEP50 complex was incubated with compounds in a buffer consisting of 50 mM Tris-HCl pH 8.0, 50 mM NaCl, 1 mM TCEP, and 4xSypro Orange (Thermo Fisher, S-6650) in the absence or presence of cofactor (10 µM SIN, 10 µM SAM, or 5 µM MTA) and read on a StepOne™ Real-Time PCR machine (Applied Biosystems™) using a temperature ramp of 0.5 °C/min over a range of 25 to 95 °C.

[5] = in vitro; conditions: human, primary bone marrow-derived megakaryocytes
[6] = Blood/tumor compound concentrations in contralateral tumor model; type: in vivo, mouse; conditions: 4 h post last dose, 50-200 mg/kg
Procedure: HCT116 colon carcinoma WT and MTAP^−^/^− isogenic cells were determined to be free of contamination with mycoplasma as well as a panel of murine viral pathogens in addition to being authenticated. Mice were inoculated s.c. with 2 × 10^6 HCT116 WT cells on the left flank and 2 × 10^6 HCT116 MTAP^−^/^− cells on the right flank in 33% Matrigel. Mice were enrolled once both tumors reached 250 to 500 mm^3 and randomized into vehicle vs. PRMT5i treated groups (N = 3). Vehicle or PRMT5i treatment started on day 14 postimplantation orally and treated once daily for 4 d. Blood was collected at 4 h post–last dose (day 17 postimplantation) for pharmacokinetic analysis in Microtainer tubes containing lithium heparin. Blood was centrifuged at 7,000 rpm at 4 °C for 7 min. Tumors from both sides were also collected and snap-frozen for pharmacokinetic analysis and SDMA ELISA. Plasma and tumors were collected and stored at −80 °C until analysis.

[7] = system: MTAP-deleted HCT116 cells; assay: Cell viability (CellTiter-Glo), MTAP-deleted cells; type: cell-based; conditions: Homo sapiens, read-out: IC50, cell viability
Procedure: (§5) Parental (HD PAR-034) and MTAP^−^/^− (HD R02-033) colorectal cancer HCT116 cell lines were obtained from Horizon Discovery and maintained in RPMI1640 supplemented with 10% fetal bovine serum and antibiotics or in McCoy 5A supplemented with 10% fetal bovine serum (for mouse experiments). Other cell lines were obtained from ATCC and maintained according to instructions. Effects of compounds on cell viability were assessed using the CellTiter-Glo Kit from Promega (G7571) after 6 d of compound incubation and quantified using an EnVision® 2105 multimode plate reader (PerkinElmer) in luminescence mode.

[8] = system: Parental HCT116 cells (MTAP WT); assay: SDMA high-content imaging assay, parental cells; type: cell-based; conditions: Homo sapiens, HCT-116, 72 h, read-out: IC50, reduction of cellular SDMA
Procedure: as §1

[9] = system: 24-cell line panel of MTAP WT and MTAP-deleted cell lines; assay: Cell viability across 24-cell line panel; type: cell-based; conditions: MTAP WT vs MTAP-deleted
Procedure: as §5

[10] = system: HCT116 MTAP Null tumors; assay: Contralateral tumor model, tumor SDMA ELISA, MTAP-deleted tumors; type: in vivo, mouse; conditions: daily for 4 d
Procedure: as §2, §3, §4

[11] = system: Parental HCT116 cells (MTAP WT); assay: Cell viability (CellTiter-Glo), parental cells; type: cell-based; conditions: Homo sapiens, read-out: IC50, cell viability
Procedure: as §5

[12] = system: MTAP null tumors; parameters: method as in PMID 39282709; conditions: patients with MTAP null tumors; cited from earlier work

Compound: Cc1cc2cc(C(=O)N(Cc3ccc(C(F)(F)F)cn3)CC(C)C)ccc2nc1N [AM-9934]
- inhibitory activity toward the other tested methyltransferases [1]: No significant inhibitory activity
- IC50 [2]: 9.2 nM
- suppression of tumor SDMA levels (in words) [3]: insignificant at lower doses
- stabilization in the presence of MTA ([4]; MTA-bound complex, compound 0.1 µM): 9.3 K
- IC50 [5]: 3100 nM
- exposures (blood/tumor compound concentrations) [6]: exposures increased with dose
- IC50 ([7]; HCT-116, […]): 160 nM
- IC50 [8]: 143 nM
- discrimination of viability potency by MTAP status [9]: significantly higher potency toward MTAP-deleted cell lines
- suppression of tumor SDMA levels (in words) [10]: all three doses reached significant levels of SDMA suppression
- IC50 ([11]; HCT-116, […]): 4100 nM

Compound: Nc1nc2cnc(C(=O)N3CCOC[C@@H]3c3ccc(C(F)(F)F)cc3)cc2c2c1COC2 [AMG 193]
- antitumor responses in patients [12]: initial antitumor responses

- IC50 ([2]; MTAP-deleted HCT116, 3 d incubation): 4.3 nM
- stabilization of the MTA-bound complex ([4]; MTA-bound complex, compound 10 µM): no stabilization
- stabilization of the SAM-bound complex ([4]; SAM-bound complex, compound 10 µM): showed an interaction
- stabilization of the SIN-bound complex ([4]; SIN-bound complex, compound 10 µM): showed an interaction
- IC50 [5]: 360 nM
- IC50 ([7]; HCT-116, MTAP-deleted HCT116, 6 d incubation): 600 nM
Compound: O=C(NC[C@H](O)CN1CCc2ccccc2C1)c1cc(NC2COC2)ncn1 [EPZ015666]
- IC50 ([8]; parental HCT116, 3 d incubation): 9.6 nM
- discrimination of viability potency by MTAP status [9]: did not significantly discriminate
- IC50 ([11]; HCT-116, parental HCT116, 6 d incubation): 890 nM

Compound: CC(=O)N1CCC(Nc2cc(C(=O)NC[C@H](O)CN3CCc4ccccc4C3)ncn2)CC1 [GSK3326595]
- suppression of tumor SDMA levels (in words) [3]: marked suppression
- suppression of tumor SDMA levels (in words) [10]: marked suppression

- stabilization of the complex by cofactor alone [4]: < 0.5 K
Compound: CSC[C@H]1O[C@@H](n2cnc3c(N)ncnc32)[C@H](O)[C@@H]1O [MTA, methylthioadenosine]

Compound: C[S+](CC[C@H](N)C(=O)[O-])C[C@H]1O[C@@H](n2cnc3c(N)ncnc32)[C@H](O)[C@@H]1O (some centres unmarked) [SAM, S-Adenosyl methionine]
- stabilization of the complex by cofactor alone [4]: < 0.5 K

- stabilization of the complex by cofactor alone [4]: < 0.5 K
Compound: Nc1ncnc2c1ncn2[C@@H]1O[C@H](C[C@@H](N)CC[C@H](N)C(=O)O)[C@@H](O)[C@H]1O [SIN, sinefungin]
